# Data as given in patent US20050176826A1, “Use of asc-1 inhibitors to treat neurological and psychiatric disorders” (H. Lundbeck A/S, priority 2002, published 2005).
# pKi: −log10 of the molar value.
# Assays:
# [1] = test system: rat brain (ventral hippocampus) extracellular amino acids; test: Microdialysis in rat ventral hippocampus, amino acid levels in dialysate; format: in vivo; conditions: 1 mM infused via microdialysis probe into ventral hippocampus, 140 min (FIG. 1)
# From the text: Rats (male wistar) were anaesthetized and intracerebral guide cannulas (CMA/12) were stereotaxically implanted into the brain positioning the dialysis probe tip in the ventral hippocampus (co-ordinates 5.6 mm […] to bregma, lateral −5.0 mm, 7.0 mm ventral to dura). The rats were allowed to recover from surgery for at least 2 days. On the day of the experiment, a microdialysis probe (CMA/12, 0.5 mm diameter, 3 mm length) was inserted through the guide cannula. The probes were connected via a dual channel swivel to a microinjection pump. Perfusion of the microdialysis probe with filtered Ringer solution (145 mM NaCl, 3 mM KCl, 1 mM MgCl2, 1.2 mM CaCl2) was begun shortly before insertion of the probe into the brain and continued for the duration of the experiment at a constant flow of 1 μl/min. After 165 min of stabilization, the experiments were initiated. A 20 min sampling regime was used throughout the experimental period. Time points were corrected for lag time of the perfusate from the microdialysis site to the probe outlet. The compound, S-methyl-L-cysteine (Sigma-Aldrich, St. Louis, USA) was dissolved in filtered Ringer solution (in 1 mM concentration) and was locally infused into the ventral hippocampus by reverse dialysis for 140 min (FIG. 1). After the experiments, the rats were sacrificed by decapitation. The brains were removed, frozen and sectioned (20 μm), and the position of the probes was verified. The concentrations of amino acids in the dialysates were analyzed by means of HPLC with fluorescence detection after precolumn online derivatisation with o-phatalaldehyde. The system consisted of a Hypersil AA-ODS column (5 μm, 2.1×200 mm, Agilent) with a Agilent 1100 fluoresence detector (excitation, 266-340 nm; emission, 305-340 nm). Mobile phases consisted of A: 20 mM sodium acetate, 0.018% triethylamine, 0.3% tetrahydrofuran, pH 7.2. B: 20 mM sodium acetate, 40% acetonitrile and 40% methanol, pH 7.2. The oven temperature was set at 40° C. and flow rate was 0.45 ml/min. Data were collected and analysed using ChemStation software (Agilent) after calibration with a range of standard amino acid solutions (0.1-10 μM). The mean value of 3 consecutive samples immediately preceding compound administration served as the basal level for each experiment and data were converted to percentage of basal (mean basal pre-injection values normalized to 100%).
# [2] = molecular target: T1, human GlyT-1B (Homo sapiens, UniProt P48067); test: [3H]-glycine uptake into CHO cells expressing human GlyT-1B; format: cell-based
# T1 construct: expressed in transfected cells; host or cells: CHO cells
# T1 sequence (P48067 1-652 isoform P48067-3): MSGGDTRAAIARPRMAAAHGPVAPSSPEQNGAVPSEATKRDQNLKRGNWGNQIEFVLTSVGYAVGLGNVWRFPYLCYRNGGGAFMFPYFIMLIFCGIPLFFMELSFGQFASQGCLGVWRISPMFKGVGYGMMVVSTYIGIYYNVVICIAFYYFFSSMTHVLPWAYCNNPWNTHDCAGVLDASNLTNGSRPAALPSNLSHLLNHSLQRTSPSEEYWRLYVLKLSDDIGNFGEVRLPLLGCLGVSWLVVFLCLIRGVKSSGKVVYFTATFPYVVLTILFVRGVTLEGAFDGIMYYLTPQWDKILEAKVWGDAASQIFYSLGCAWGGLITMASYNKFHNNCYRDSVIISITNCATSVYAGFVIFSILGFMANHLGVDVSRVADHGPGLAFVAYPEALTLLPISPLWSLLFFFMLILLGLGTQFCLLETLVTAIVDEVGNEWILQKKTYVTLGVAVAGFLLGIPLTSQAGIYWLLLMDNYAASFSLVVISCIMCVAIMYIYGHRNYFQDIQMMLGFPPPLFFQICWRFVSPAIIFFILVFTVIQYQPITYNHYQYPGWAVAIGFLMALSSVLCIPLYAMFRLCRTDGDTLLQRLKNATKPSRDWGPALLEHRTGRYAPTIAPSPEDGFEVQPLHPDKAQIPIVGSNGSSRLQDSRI
# Protocol: Measurements of [^3H]-glycine uptake into CHO cells expressing human GlyT-1B were performed in 96 well plates using 1 μCi [^3H]-glycine/well. Cells were plated 2 days before the experiment and washed twice with assay buffer (composition: 150 mM NaCl, 10 mM glucose, 2.5 mM KCl, 1 mM CaCl2, 2.5 mM MgSO4, 10 mM HEPES, pH 7.4). Test compounds were added 10 min before radioligand and cells were incubated for a further 15 min at 37° C. Cells were washed as described for [3 H]-D-serine uptake into asc-1 cells. Non-specific uptake was defined as uptake in the presence of 100 μM N-methyl-N-(phenyl-trifluoromethylphenoxy)propan-1-yl-glycine.
# [3] = molecular target: T2, serotonin (5-HT) uptake (Rattus norvegicus, UniProt P31652); test: [3H]serotonin uptake into rat brain synaptosomes; format: biochemical
# T2 construct: from tissue; host or cells: synaptosomes from whole rat brain excluding cerebellum
# T2 sequence (P31652 whole entry): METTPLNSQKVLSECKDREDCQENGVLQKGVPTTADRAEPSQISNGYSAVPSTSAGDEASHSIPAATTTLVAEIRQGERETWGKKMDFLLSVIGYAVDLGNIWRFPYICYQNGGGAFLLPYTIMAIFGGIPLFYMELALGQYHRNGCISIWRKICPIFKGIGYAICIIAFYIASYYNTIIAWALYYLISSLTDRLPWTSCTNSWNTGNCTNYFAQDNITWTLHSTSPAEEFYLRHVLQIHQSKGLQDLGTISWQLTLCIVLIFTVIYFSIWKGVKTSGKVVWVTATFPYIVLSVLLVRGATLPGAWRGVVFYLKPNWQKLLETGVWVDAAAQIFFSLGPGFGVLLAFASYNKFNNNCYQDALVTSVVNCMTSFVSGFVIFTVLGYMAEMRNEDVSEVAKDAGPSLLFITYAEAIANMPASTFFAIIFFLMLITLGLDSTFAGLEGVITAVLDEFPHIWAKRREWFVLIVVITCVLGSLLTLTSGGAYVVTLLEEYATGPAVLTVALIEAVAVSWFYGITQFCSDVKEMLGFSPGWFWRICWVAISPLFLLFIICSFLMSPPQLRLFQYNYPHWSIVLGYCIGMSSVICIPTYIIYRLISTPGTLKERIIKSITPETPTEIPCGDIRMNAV
# Protocol: Inhibition of serotonin (5-HT), dopamine (DA) and noradrenaline (NA) uptake in vitro was measured in rat brain synaptosomes using a modification of a previously described protocol (Bøgesø et al., J Med Chem 1985, 28, 1817-1828). In brief, tritium labelled amines were used to measure uptake into synaptosomes from whole rat brain (excluding cerebellum) ([^3H]serotonin), rat striatal synaptosomes ([^3H]dopamine) or into rat cortical synaptosomes [^3H]noradrenalin. The dissected rat brain regions were homogenized in 0.40 M sucrose supplemented with 1 mM nialamid and centrifuged at 1000×g for 10 min. The supernatants were further centrifuged for 30 min at 20.000×g, 4° C. and resuspended in Krebs-Ringer buffer, pH 7.4 supplemented with 0.2 g/l ascorbic acid. Test compounds and membranes were added in 96 well plates and the incubation was started by adding either 10 nM [^3H]serotonin, 12.5 nM [^3H]dopamine or 10 nM [^3H]noradrenalin for 15 min at 37° C. except for [^3 H]dopamine uptake (5 min at 20° C.). Non-specific uptake was defined as uptake in the presence of 10 μM citalopram, 100 μM benttropin or 20 μM talsupram, respectively and accounted for 5-10% of total uptake. Samples were filtered over Whatman GF/C filters and the IC50's were estimated using non-linear regression analysis from at least 8 points dose-response curves with triplicate determinations.
smiles,measurement,setting,value
CSCC(N)C(=O)O (stereo in doubt) [(S)-methyl-L-cysteine],level of alanine in rat brain dialysate,[1],marked increase
same,level of aspartate in rat brain dialysate,[1],not affected
same,level of glutamate in rat brain dialysate,[1],not affected
same,level of glycine in rat brain dialysate,[1],marked increase
same,level of serine in rat brain dialysate,[1],marked increase
same,level of threonine in rat brain dialysate,[1],marked increase
same,pKi,[2],< 4.00
same,pKi,[3],< 3.00
